Experimental data: patent US7049321B2, “Methods and pharmaceutical compositions for treatment of central and peripheral nervous system disorders and compounds useful therefor” (Israel Institute for Biological Research, priority 2002, dated 2006)

Experiments:
[1] = Plasma levels of AF267B and AF292 in dogs after AF267B administration (toxicokinetic, LC-MS); format: in vivo, Beagle dogs; settings: for AUC(0-t) / Cmax / Tmax / half-life / AUC(0-inf) / MRT / MRT at 13 weeks: beagle, plasma, po
From the text: Internal Standard (AF261): 2-Methyl-8-methyl-1-thia-4,8-diaza-spiro[4.5]decan-3-one; MW 200. The analytical plasma samples originate from the in-life part of this study.

tau proteins = assay: tau phosphorylation, AT8 immunoblot; format: cell-based; settings: 100 μM; to the control level
From the text: Following the experimental design of Sadot et al., J. Neurochem. […] By linking an M1 agonist to an antioxidant moiety tau phophorylation may be decreased, providing a new therapeutic strategy in a variety of CNS disease states due to combined damage due to oxidative stress and tau hyperphosphorylation.

M1 receptors = biological target: T1, M1 receptors (Rattus norvegicus, UniProt P08482); assay: [3H]PZ competition binding to rat cortical membranes; settings: for Ki: rat cortex
T1 construct: from tissue; host or cells: rat cortical membranes
T1 sequence (P08482 1-460): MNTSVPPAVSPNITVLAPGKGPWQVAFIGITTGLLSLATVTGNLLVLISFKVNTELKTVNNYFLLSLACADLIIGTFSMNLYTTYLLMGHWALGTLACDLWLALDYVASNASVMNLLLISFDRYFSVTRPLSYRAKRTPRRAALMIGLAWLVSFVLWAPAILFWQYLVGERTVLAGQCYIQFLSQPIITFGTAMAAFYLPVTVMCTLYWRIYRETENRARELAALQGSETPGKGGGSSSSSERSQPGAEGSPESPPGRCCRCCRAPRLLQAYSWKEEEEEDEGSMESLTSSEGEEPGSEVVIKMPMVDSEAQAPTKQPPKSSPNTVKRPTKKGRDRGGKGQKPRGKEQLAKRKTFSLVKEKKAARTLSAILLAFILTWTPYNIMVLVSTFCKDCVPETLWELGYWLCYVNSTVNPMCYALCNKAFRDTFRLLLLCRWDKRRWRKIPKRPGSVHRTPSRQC
From the text: Pirenzepine (PZ), a muscarinic antagonist, binds preferentially to M1 receptors while OXO-M binds to all mAChR subtypes non-selectively; the ratio between the Ki values for PZ versus that of OXO-M may be indicative of the selectivity of the tested compound. The smaller the ratio, the more M1 selective is the tested compound. […] The OXO-M/PZ ratio is ˜0.36 showing a moderately high selectivity for the M1 receptor.

[2] = CNS safety: general observation and Irwin test in rats; format: in vivo, rat
Description: AF292 was evaluated in rodents for possible effects on general behavior and other CNS related pharmacological effects. […] No behavioral or physical signs were observed 24 hours after administration. All rats were retained for 14 days, and throughout this retention period all rats appeared normal.

[3] = Metabolic stability, dog liver microsomes; format: in vitro ADME; settings: read-out: Metabolic Stability T1/2
Description: The metabolic stability of AF292 was evaluated by monitoring its disappearance while incubated with rat, […], monkey, and human hepatic microsomes. Testosterone, and propranolol were run as assay controls.

[4] = system: cells transfected with M1 mAChR; assay: Apoptosis (DAPI, TUNEL, FACS) after starvation, Aβ or H2O2; format: cell-based, rat; settings: for Apoptotic cell death induced by starvation: 24 hrs starvation; for H2O2-induced apoptosis: H2O2 25 and 50 μm; for Aβ-induced apoptosis: β-A25-35 or β-A1-42 (25 μM), M1 transfected cells; for Apoptotic population after β-amyloid (FACS): β-Amyloid 25–35 or 1–42
Description: Several experiments were performed in serum-free medium.
Cells were grown and treated on glass coverslips.
Apoptotic cells were identified as the pre-G1 phase.

tau protein = assay: tau-1 immunoreactivity in primary cell cultures (western blot); format: cell-based, rat; settings: 1–100 μM, cortical and hippocampal cell cultures
Description: Primary cell cultures were grown as described in EXAMPLE 38. Cell supernatants were removed and the cells were washed once in medium prior to the addition of cold phosphate buffre saline ph=7.4 (PBS) solution containing 0.2 mM EDTA. Cells were scraped using a rubber policeman, transferred to Eppendorf tubes, and centrifuged at 4° C. Cell pellets were resuspended in lysis buffer (EDTA 5 mM, Tris 50 mM, Triton 1%, NaCl 150 mM) containing protease inhibitors (5 units/ml apronitin, […] and 0.1 mM PMSF, Sigma) and subjected to centrifugation at 4° C. Supernatants were transferred into Eppendorf tubes and kept at −20° C. till analyzed. The extent of tau-1 immunoreactivity (an antibody that recognizes a non-phosphorylated tau at Ser^199) was determined by western blots.

naive rats = assay: Social memory (olfactory recognition) in naive rats; format: in vivo, Wistar rats; settings: 0.5, 1 and 5 mg/kg, p.o.
Description: 12 Male Wistar rats, 400–530 gr (4–5 months old) were used. Rats were housed individually 14 days before testing. Juvenile Wistar rats 40–50 gr (at arrival) were kept in groups of 6 and served as social stimuli for the adult rats. Animals were kept at 21° C.±1, with an inverse light-dark cycle (light on from 2:00 P.M. to 2:00 A.M.). The sessions were conducted 7 hr into the dark part of the light/dark cycle, under red illumination.
Adult rats were placed in a dim illumination room 1.5 h before the beginning of the social test. All juveniles were isolated in cages for 30 min prior to the beginning of the experiment. At the beginning of testing, an unfamiliar juvenile rat was placed in the home cage of an adult rat for 5 min. The time spent by the adult rat in investigating the juvenile rat was recorded. The adult rat was then immediately (1–2 min) treated with vehicle or test compound. Two hours later, the same juvenile was presented to the same adult rat for another 5 min period, a time when normally the stimulus juvenile is no longer identified (i.e., the adult rat investigates the juvenile for the same amount of time as during the first presentation). […]
Time spent in social investigation of stimulus juvenile rat was measured (in sec) and then expressed for each animal as the ratio of the second exposure to the first exposure (Ratio of Investigation Duration (RID)). […]

[5] = both sexes, dog, 6 mg/kg, read-out: plasma half life
[6] = female, dog, 6 mg/kg, F (1x), AF267B 1.5, 3, 6 mg/kg p.o. single
[7] = female, dog, 6 mg/kg, F(13w), AF267B 1.5, 3, 6 mg/kg p.o.
[8] = male, dog, 6 mg/kg, M (1x), AF267B 1.5, 3, 6 mg/kg p.o. single
[9] = male, dog, 6 mg/kg, M(13w), AF267B 1.5, 3, 6 mg/kg p.o.
[10] = male, dog, read-out: Elimination half life, Mean T1/2

Structure (SMILES) | AUC(0-t) ([1]; both sexes, dog) [ng·h/mL] | Cmax ([1]; both sexes, dog) [ng/mL] | Tmax ([1]; both sexes, dog) [h] | half-life [1, 5] [h] | AUC(0-inf) [1, 6] [ng·h/mL] | AUC(0-inf) [1, 7] [ng·h/mL] | MRT ([1]; female, dog, F (1x)) [h] | MRT at 13 weeks ([1]; female, dog, F(13w)) [h] | AUC(0-inf) [1, 8] [ng·h/mL] | AUC(0-inf) [1, 9] [ng·h/mL] | MRT ([1]; male, dog, M (1x)) [h] | MRT at 13 weeks ([1]; male, dog, M(13w)) [h] | half-life [1, 10] [h] | tau phosphorylation (AT8) (tau proteins) | Ki (M1 receptors) [µM] | half-life [3] [h] | Apoptotic death during starvation (FACS) [4] | Apoptotic cell death induced by starvation [4] | H2O2-induced apoptosis [4] | Aβ-induced apoptosis [4] | further results
CC[C@@H]1SC2(CCNCC2)NC1=O [AF292, (S)-2-Ethyl-1-thia-4,8-diaza-spiro[4.5]decan-3-one] | 616 to 2450 | 136 to 555 | 3 | 9 to 20 | 3900 to 4840 | 1870 to 12700 | 8.7 to 18.7 | 5.1 to 33.7 | 1140 to 10900 | 1610 to 4170 | 5 to 27.3 | 5 to 7.8 | 6.3 | induce dephosphorylation of tau proteins | 1.64 | > 1.67 | – | – | – | – | Elimination half life, Mean T1/2 ([1]; F): Mean T1/2 (F) = 10.6 +/− 7.6 h; Cmax vs. the Cmax of AF267B ([1]; dog, in vivo): 50–90%; half-life ([1]; female, dog, females, read-out: T1/2 (converted)): 10.6 h; OXO-M/PZ ratio (M1 receptors): ~0.36; Physical or behavioral signs (Irwin test) ([2]; 1, 10, 30, 60, 100 mg/kg, p.o.): No significant physical or behavioral signs
CC1=NCC2(CCN(C)CC2)S1 [AF150(S), 2,8-Dimethyl-1-thia-3,8-diaza-spiro[4.5]dec-2-ene] | – | – | – | – | – | – | – | – | – | – | – | – | – | – | – | – | protected cells from apoptotic death | significantly protect | prevented H2O2-induced apoptosis | prevented | Apoptotic population after β-amyloid (FACS) [4]: reduced the apoptotic population significantly; tau-1 immunoreactivity (tau protein): effective in elevating tau immunoreactivity; Investigation time of the same juvenile (RID) (naive rats): decreased the investigation time
CC[C@@H]1SC2(CCN(C)CC2)NC1=O [AF267B, (S)-2-ethyl-8-methyl-1-thia-4,8-diaza-spiro[4.5]decan-3-one] | 712 to 3950 | 162 to 1350 | 1.5 to 3 | 1 to 2 | 985 to 3180 | 1030 to 4160 | 4.7 to 5.3 | 3.6 to 5.2 | 800 to 3690 | 1040 to 4470 | 3.8 to 5 | 3 to 4.2 | 2.1 | induce dephosphorylation of tau proteins | 3.74 ± 0.59 | > 1.67 | protected cells from apoptotic death | significantly protect | prevented H2O2-induced apoptosis | prevented | half-life ([1]; female, dog, read-out: Elimination half life, Mean T1/2): 3.3 h; Apoptotic population after β-amyloid (FACS) [4]: reduced the apoptotic population significantly; tau-1 immunoreactivity (tau protein): effective in elevating tau immunoreactivity; Investigation time of the same juvenile (RID) (naive rats): decreased the investigation time; IRWIN TEST, duration of signs ([2]; 100 mg/kg): duration 3–6 hrs.).; IRWIN TEST, onset of signs ([2]; 100 mg/kg): 0.5 h; IRWIN TEST, signs ([2]; 100 mg/kg p.o.): 100 mg/kg: abnormalities of carriage, and apathy, decreased corneal reflex, diarrhea, and reduced grooming, increased urination, and salivation, lacrimation & and chromodacryorrhea, reduced locomotor and activity, passivity, decreased respiration, and reduced startle response; IRWIN TEST, gross behavior & physiological state ([2]; 1 & 10 mg/kg, p.o.): 1 & 10 no effect on gross behavior; Chromodacryorrhea, dose ([2]; p.o.): Chromodacryorrhea: 100 mg/kg, p.o.; Convulsion, dose ([2]; p.o.): Convulsion: 50 mg/kg, p.o.; Gnawing, dose ([2]; p.o.): Gnawing; 50 mg/kg, p.o.; Hypothermia, dose ([2]; p.o.): Hypothermia: 50 mg/kg, p.o.; Lacrimation, dose ([2]; p.o.): Lacrimation: 50 mg/kg, p.o.; Mydriasis, dose ([2]; p.o.): Mydriasis: 25 mg/kg, p.o.; Salivation, dose ([2]; p.o.): Salivation: 40 mg/kg, p.o.; Sedation, dose ([2]; p.o.): Sedation: 100 mg/kg, p.o.; Dose at which salivation and lacrimation begin ([2]; po, first hour): about 40 mg/kg
